One compound from US10537650B2, “Molecular probes for multimodality imaging and tracking of stem cells” (University of Massachusetts, priority 2012, dated 2020) can be followed below.

Format in all cases: in vivo, mouse
A short description of data set [1]: SPECT/CT, whole body count and optical imaging of ^111In-MTTI-157 labeled TC1 mES cells in NU/NU mice. The following applies: for distribution of radioactivity (SPECT/CT): NU/NU mice. The procedure: All animal experiments were approved by the Institutional Animal Care and Use Committee of the university. Male NU/NU mice from Charles River Laboratories International, Inc. (Wilmington, Mass.), about 8 week-old, were used here, and fed a white chow (AIN-93G Purified Diet, Harlan, Madison, Wis.) and water, and housed under standard conditions. TC1 wild type mES cells were labeled with ^111In-MTTI-157 at the dye concentration of 20 μM with about 50 μCi/ml per labeling mix according to the method described before. Then about 4-5 μCi of ^111In-MTTI-157 labeled cells in 0.1 ml PBS (5×10^6 per mouse) was injected into NU/NU mice by tail vein or delivered subcutaneously on the left shoulder. The mice were followed by SPECT/CT imaging (NanoSPECT/CT, Bioscan, Inc., Washington, D.C.) with scans at 1 h and 19 h for injection subcutaneously, and at 30 min and 18 h for injection by tail vein.
The whole body radioactivity was measured through day 9 after injection by placing the mouse in a dose calibrator (Capintec).
(§1) The SPECT image parameters were 1.0 mm/pixel, 256×256 frame size and 60 sec per projection with 24 projections. Acquisition time was approximately 30 min. During imaging, the animal was anesthetized with 1-2% isoflurane in 1.5 liters/min oxygen. A CT scan was acquired prior to the SPECT scan and was performed at standard resolution, using a 45 kVp voltage and 500 milliseconds exposure time. The CT and SPECT reconstruction was performed using InVivoScope 1.43 software (Bioscan, Washington, D.C.).
Optical images (Pearl Imager, LiCor Biosciences, Lincoln, Nebr.) were acquired on day 0 and at intervals through day 28. After imaging, the lungs, liver, spleen and teratoma were removed, imaged and then imbedded in OCT in preparation for frozen section fluorescence microscopy. Slides were counter stained with the general membrane stain D275 (Invitrogen, Em: 484 nm, Ex: 501 nm). Slides were viewed in an Olympus IX 70 Inverted Light Microscope (Olympus America, Inc., NY) using filters for FITC (for D275) and Cy5 (for MTTI-157). […]

Data set [2] can be described thus: SPECT/CT, whole body count and optical imaging of ^111In-MTTI-157 labeled BL/6 mES cells in NU/NU mice. The procedure: BL/6 wild type mouse embryonic stem cells (mES) were labeled with ^111In-MTTI-157 at the concentration of 12 μM and about 250 μCi/ml according to the method described before. The labeled cells (5 in 0.1 ml PBS (5×10^6 per mouse) were injected into NU/NU mice by tail vein or subcutaneously on the left shoulder. SPECT/CT imaging was done at 30 min, 21 h and day 4 after injection subcutaneously, and at 1 h, 22 h and day 4 when injected by tail vein. Optical imaging was performed through day 11 for the subcutaneous delivery of cells. The whole body radioactivity was measured through day 7 by placing the animal in a dose calibrator.
The lungs, liver, and spleen were removed from the mouse injected by tail vein when sacrificed on day 19, and the teratoma was removed from mouse injected subcutaneously on the left shoulder when sacrificed on day 15. Excised organs and teratoma were imaged on the Li-Cor Biosciences Pearl Imager, and then set in OCT for frozen sections. The frozen sections were stained with the general membrane fluorescent stain D275 (Invitrogen, Em: 484 nm, Ex: 501 nm) and detected on an Olympus IX 70 Inverted Light Microscope (Olympus America, Inc., NY) using a FITC filter for D275 and a Cy5 filter for MTTI-157. D275 is a cell membrane stain and was used here to stain the field of view. The frozen sections were also stained with hematoxylin-eosin (H&E) for standard microscopy.

Data set [3] can be described thus: SPECT/CT, whole body activity and optical imaging of ^111In-MTTI-157 labeled LS174T cells in SKH-1 mice. The procedure: ^111In-MTTI-157 labeled LS174T cells were administered to mice to follow their fate and that of the labels they carried. All animal experiments were approved by the Institutional Animal Care and Use Committee of the university. Male SKH-1 mice about 8 week-old (Charles River Laboratories, Inc., Wilmington, Mass.) were housed under standard conditions and fed white chow (AIN-93G Purified Diet, Harlan, Madison, Wis.). LS174T cells were prepared labeled with ^111In-MTTI-157 as above, and about 5×10^6 cells with 10-12 μCi was injected by tail vein per mouse.
as §1, with “The mice were followed by SPECT/CT imaging (NanoSPECT/CT, Bioscan, Inc., Washington, D.C.) with scans at 30 min, 1 h, 24 h, 72 h, 120 h and 168 h following injection. The SPECT” for “The SPECT”, “in 1.5 L/min oxygen. A” for “in 1.5 liters/min oxygen. A”
Optical images (Pearl Imager, LiCor Biosciences, Lincoln, Nebr.) were acquired on day 0 and at intervals through day 28. To facilitate detection of signal at depth, such as in the lungs, some animals were killed, the chest and abdomen opened to expose internal organs, and then imaged. Untreated mice served as control. After imaging, the lungs, liver and spleen were removed, imaged and then imbedded in OCT in preparation for frozen section fluorescence microscopy. Slides were counter stained with the general membrane stain D275 (Invitrogen). Slides were viewed in an Olympus IX 70 Inverted Light Microscope (Olympus America, Inc., NY) using filters for FITC (for D275) and Cy5 (for MTTI-157).

Turning to `CCCCCCCCCCCCCCCCCCCCCCN1C(=CC=CC=CC2=[N+](CCCCCCCCCCCCCCCCCCCCCC)c3ccc(CNC(=O)CN4CCN(CC(=O)[O-])CCN(CC(=O)[O-])CCN(CC(=O)[O-])CC4)cc3C2(C)C)C(C)(C)c2ccccc21.[111In+3].[I-]` [^111In-MTTI-157], the “distribution of radioactivity (SPECT/CT)” value in data set [1] (labeled TC1 mES cells injected by tail vein) is “accumulated in the lungs at 1 h after injection and then distributed to liver and spleen by 19 h”; in data set [1] (labeled TC1 mES cells injected subcutaneously on the left shoulder), “retained in the shoulder and did not distribution to other tissue through 18 h”; in data set [2] (labeled BL/6 mES cells by tail vein, NU/NU mice), “accumulated in the lungs by 1 h following injection which then distributed to the liver and spleen by 22 h”; in data set [2] (labeled BL/6 mES cells subcutaneously on left shoulder, through day 4), “retained in the shoulder without distribution to other tissue”; in data set [3] (labeled LS174T cells by tail vein, SKH-1 mice, earliest scan 30 min and 1 h, then within a day), “restricted to the lungs and then seen to redistribute within a day to the liver and spleen”. The “whole body radioactivity corrected for decay” value in data set [1] (tail vein and subcutaneous injection of labeled TC1 mES cells, dose calibrator) was “retained in the body through day 9”. In data set [2] (labeled BL/6 mES cells, measured through day 7 in dose calibrator), the whole body radioactivity result is “unchanged from 2 h to 21 h after injection, but then decreases slightly at 91 h and remain at this level through 165 h”. The “whole body ^111In retention (decay corrected)” value in data set [3] (SKH-1 mice, labeled LS174T cells by tail vein) was “retention out thru Day 14”. The “loss of whole body activity (half-life corrected)” value in data set [3] (from day 0 to day 10, dose calibrator, SKH-1 mice) is “about 23%”. Moreover, the “label stability in vivo” value in data set [3] (monitoring of cells out through 28 days in vivo) is recorded as “no evidence of label instability”.
